# Experimental data as given in US20090274676A1, “COMBINATION OF DEHYDROEPIANDROSTERONE OR DEHYDROEPIANDROSTERONE-SULFATE WITH A PDE-4 INHIBITOR FOR TREATMENT OF ASTHMA OR CHRONIC OBSTRUCTIVE PULMONARY DISEASE” (priority 2003, published 2009).
# Where “and” joins values, the source holds several entries; their conditions need not be identical. Equal values may be shown once. Marks after values point to notes of the source that are not given here.
# Tests used:
# Type in all cases: physicochemical
# [1] = Respirable dose studies, Andersen cascade impactor; conditions: 90 L/min
# Method: The respirable dose (respirable fraction) studies were performed using a standard sampler cascade impactor (Andersen), consisting of an inlet cone (an impactor pre-separator was substituted here), 9 stages, 8 collection plates, and a backup filter within 8 aluminum stages held together by 3 spring clamps and gasket O-ring seals, where each impactor stage contains multiple precision drilled orifices. When air is drawn through the sampler, multiple jets of air in each stage direct any airborne particles toward the surface of the collection plate for that stage. The size of the jets is constant for each stage, but is smaller in each succeeding stage. Whether a particle is impacted on any given stage depends upon its aerodynamic diameter. The range of particle sizes collected on each stage depends upon on the jet velocity of the stage, and the cut-off point of the previous stage. Any particle not collected on the first stage follows the air stream around the edge of the plate to the next stage, where it is either impacted or passed on to the succeeding stage, and so on, until the velocity of the jet is sufficient for impaction. To prevent particle bounce during the cascade impactor test, the individual impactor plates were coated with a hexane-grease (high vacuum) solution (100:1 ratio). As noted above, the particle size cut-off points on the impactor plates changed at different airflow rates. […] The set-up recommended by the United States Pharmacopeia for testing dry powder inhalers consists of a mouthpiece adapter (silicone in this case) attached to a glass throat (modified 50 ml round-bottom flask) and a glass distal pharynx (induction port) leading top the pre-separator and Andersen sampler. The pre-separator sample includes washings from the mouthpiece adaptor, glass throat, distal glass pharynx and pre-separator. 5 ml acetonitrile:water (1:1 ratio) solvent was placed in the pre-separator before performing the cascade impactor experiment, that were performed in duplicate with 3 different dry powder inhaler devices and at 3 airflow rates, 30, 60 and 90 L/min. The drug collected on the cascade impactor plates were assayed by the HPLC, and a drug mass balance was performed for each Diskhaler and multi-dose cascade impactor experiment consisting of determining the amount of drug left in the blister, the amount of drug remaining in the device (Diskhaler only), the non-respirable amount of the dose retained on the silicone rubber mouth piece adaptor, glass throat, glass distal pharynx and pre-separator, all combined into one sample, and the respirable dose, i.e. Stage 2 through filter impactor plates for airflow rates of 30 and 60 L/min and Stages 1 through filter impactor plates for 90 L/min experiments.
# The cascade impactor experiments were conducted as described in Example 3. Four cascade impactor experiments were done, three with a IDL multi-dose device and one with a Diskhaler, all at 90 L/min. […] However, the % respirable dose was still low. This was likely the result of moisture absorption of the anhydrous form.
# [2] = Particle size of jet-milled / spray-dried anhydrous DHEA-S (Malvern Mastersizer X, light microscope); conditions: for Mean particle size: spray dried, two batches
# Method: Approximately 1 g sample was passed through the jet mill, once, and approximately 2 g sample were passed through the jet mill twice. […] The resulting solution was sonicated for 3 minutes and appeared fully dispersed. The dispersed solutions were tested on a Malvern Mastersizer X with a small volume sampler (SVS) attachment. One sample of dispersed material was tested 5 times. The median particle size or D (v, 0.5) of unmilled material was 52.56 μm and the % RSD (relative standard deviation) was 7.61 for the 5 values. The D (v, 0.5) for a single pass through the jet mill was 3.90 μm and the % RSD was 1.27, and the D (v, 0.5) from a double pass through the jet mill 3.25 μm and the % RSD was 3.10.
# The solution was spray-dried with a B-191 Mini Spray-Drier (Buchi, Flawil, Switzerland) with an inlet temperature of 55° C., outlet temperature of 40° C., at 100% aspirator, at 10% pump, nitrogen flow at 40 mbar and spray flow at 600 units. The spray-dried product was suspended in hexane and Span85 surfactant added to reduce agglomeration. The dispersions were sonicated with cooling for 3-5 minutes for complete dispersion and the dispersed solutions tested on a Malvern Mastersizer X with a Small Volume Sampler (SVS) attachment. […] Visual examination by light microscope of the dispersions of each batch confirmed that spray drying produced small respirable size particles. The mean particle size was 2.4 μm and 2.0 μm for each batch, respectively.
# [3] = Emitted dose studies with dry powder inhalers; conditions: for Emitted Dose (%): single runs
# Method: DHEA-S powder was collected in Nephele tubes and assayed by HPLC. Triplicate experiments were performed at each airflow rate for each of the three dry powder inhalers tested (Rotahaler, Diskhaler and IDL's DPI devices). A Nephele tube was fitted at one end with a glass filter (Gelman Sciences, Type A/E, […]), which in turn was connected to the airflow line to collect the emitted dose of the drug from the respective dry powder inhaler being tested. A silicone adapter, with an opening to receive the mouthpiece of the respective dry powder inhaler being tested at the other end of the Nephele tube was secured. A desired airflow, of 30, 60, or 90 L/min, was achieved through the Nephele tube. Each dry powder inhaler's mouthpiece was inserted then into the silicone rubber adapter, and the airflow was continued for about four s after which the tube was removed and an end-cap screwed onto the end of each tube. The end-cap of the tube not containing the filter was removed and 10 ml of an HPLC grade water-acetonitrile solution (1:1) added to the tube, the end-cap reattached, and the tube shaken for 1-2 minutes. The end-cap then was removed from the tube and the solution was transferred to a 10 ml plastic syringe fitted with a filter (Cameo 13N Syringe Filter, Nylon, 0.22 μm). An aliquot of the solution was directly filtered into an HPLC vial for later drug assay via HPLC. […] When the micronized DHEA-S (only vial B used), was weighed for placement into the gelatin capsule or blister, there appeared to be a few aggregates of the micronized powder. […] Table 2 summarizes the results for the Rotahaler experiments at 3 different flow rates, for the Diskhaler experiments at 3 different flow rates, and of the multi-dose experiments at 3 different flow rates.
# [4] = Multi-dose, oven dried drug for 80 minutes
# [5] = Multi-dose, oven dried drug for 20 hours
# [6] = Diskhaler (2nd study), 87.8 L/min
# [7] = IDL Multi-Dose (2nd study), 87.8 L/min
structure (smiles),measurement,setting,value
C[C@]12CC[C@H](OS(=O)(=O)[O-])CC1=CC[C@@H]1[C@@H]2CC[C@]2(C)C(=O)CC[C@@H]12.[Na+] [Anhydrous DHEA-S],Respirable dose of spray-dried compared to micronized anhydrous DHEA-S,[1],two-fold increase
same,Blister (%),[1]; [4],2.8%
same,Preseparator (%),[1]; [4],78.7%
same,Respirable Dose (%),[1]; [4],4.6%
same,Device (%),"[1]; Multi-dose, oven dried drug for 80 minutes, obtained by difference",13.9*^a %
same,Blister (%),[1]; [5],5.0%
same,Preseparator (%),[1]; [5],55.9%
same,Respirable Dose (%),[1]; [5],1.2%
same,Device (%),"[1]; Multi-dose, oven dried drug for 20 hours, obtained by difference",37.9*^a %
same,Blister (%),"[1]; jet-milled drug, Diskhaler",6.6% and 10.1%
same,Device (%),"[1]; jet-milled drug, Diskhaler",22.1% and 13.3%
same,Preseparator (%),"[1]; jet-milled drug, Diskhaler",72.7% and 60.2%
same,Respirable Dose (%),"[1]; jet-milled drug, Diskhaler",2.9% and 2.4%
same,Blister (%),"[1]; jet-milled drug, Multi-dose",3.8% and 3.9%
same,Preseparator (%),"[1]; jet-milled drug, Multi-dose",73.3% and 65.8%
same,Respirable Dose (%),"[1]; jet-milled drug, Multi-dose",3.6% and 3.8%
same,Device (%),"[1]; jet-milled drug, Multi-dose, obtained by difference",19.3*^a % and 26.5*^a %
same,Blisters (%),"[1]; spray-dried drug, Diskhaler",29.0%
same,Device (%),"[1]; spray-dried drug, Diskhaler",11.2%
same,Preseparator (%),"[1]; spray-dried drug, Diskhaler",56.8%
same,Respirable Dose (%),"[1]; spray-dried drug, Diskhaler",5.6%
same,"Median particle size D (v, 0.5)",[2]; double pass through the jet mill,3.25 μm
same,"Median particle size D (v, 0.5)",[2]; single pass through the jet mill,3.90 μm
same,Mean particle size,[2]; Malvern Mastersizer X,5.07±0.70 μm and 6.66±0.91 μm
same,Mean particle size,[2]; visual examination by light microscope,2.4 μm and 2.0 μm
same,"Median particle size D (v, 0.5)",[2]; unmilled material,52.56 μm
same,"Emitted Dose (%), Average",[3]; [6],59.1%
same,Emitted Dose (%),[3]; [6],57.9% and 59.9% and 59.5%
same,"Emitted Dose (%), Average","[3]; Diskhaler, 30 L/min",58.6%
same,Emitted Dose (%),"[3]; Diskhaler, 30 L/min",53.8% and 53.4% and 68.7%
same,"Emitted Dose (%), Average","[3]; Diskhaler, 60 L/min",68.2%
same,Emitted Dose (%),"[3]; Diskhaler, 60 L/min",63.4% and 38.9% and 58.0%
same,"Emitted Dose (%), Average","[3]; Diskhaler, 87.8 L/min",51.3%
same,Emitted Dose (%),"[3]; Diskhaler, 87.8 L/min",65.7% and 41.6% and 46.5%
same,"Emitted Dose (%), Average",[3]; [7],84.8%
same,Emitted Dose (%),[3]; [7],85.7% and 84.6% and 84.0%
same,"Emitted Dose (%), Average","[3]; IDL Multi-Dose, 30 L/min",85.4%
same,Emitted Dose (%),"[3]; IDL Multi-Dose, 30 L/min",78.9% and 88.2% and 89.2%
same,"Emitted Dose (%), Average","[3]; IDL Multi-Dose, 60 L/min",84.0%
same,Emitted Dose (%),"[3]; IDL Multi-Dose, 60 L/min",78.8% and 83.7% and 89.6%
same,"Emitted Dose (%), Average","[3]; IDL Multi-Dose, 87.8 L/min",72.6%
same,Emitted Dose (%),"[3]; IDL Multi-Dose, 87.8 L/min",71.3% and 79.0% and 67.4%
same,"Emitted Dose (%), Average","[3]; Rotahaler (2nd study), 87.8 L/min",31.5%
same,"Emitted Dose (%), Average","[3]; Rotahaler, 30 L/min",34.7%
same,"Emitted Dose (%), Average","[3]; Rotahaler, 60 L/min",57.3%
same,Emitted Dose (%),"[3]; Rotahaler, 60 L/min",58.1% and 68.2% and 45.7%
same,"Emitted Dose (%), Average","[3]; Rotahaler, 87.8 L/min",69.7%
same,Emitted Dose (%),"[3]; Rotahaler, 87.8 L/min",73.2% and 67.1% and 68.7%
